Data: the NIST ThermoML archive (doi:10.1007/s10765-018-2361-8)
± gives the expanded uncertainty stated by the source.

Conditions: for mass density / kinematic viscosity: 101.33 kPa; for mass density / kinematic viscosity / vapor or sublimation pressure: Liquid; for mass density: Pycnometric method; for surface tension liquid-gas: Capillary rise; for kinematic viscosity: Capillary tube (Ostwald / Ubbelohde) method; for vapor or sublimation pressure: Closed cell (Static) method

CC(C)O [propan-2-ol]
Conditions | kinematic viscosity [m2/s] | mass density [kg/m3] | surface tension liquid-gas [mN/m] | vapor or sublimation pressure [kPa]
263.1 K | – | 810.9 ± 1.1 | – | –
283.1 K | – | 795.3 ± 1 | – | –
293.2 K | 3.12e-06 ± 6e-08 | – | 21.4 ± 0.2 | –
295.3 K | – | 784.3 ± 1 | – | –
297.9 K | – | – | – | 6.38 ± 1
303.2 K | 2.35e-06 ± 5e-08 | – | – | –
303.3 K | – | – | 20.6 ± 0.2 | –
303.6 K | – | 777.5 ± 1 | – | –
303.7 K | – | – | – | 8.93 ± 1
313.2 K | – | – | 19.8 ± 0.2 | –
321.2 K | – | – | – | 21.91 ± 1
323.2 K | 1.39e-06 ± 5e-08 | – | – | –
323.3 K | – | – | 19 ± 0.2 | –
323.4 K | – | 760.1 ± 1.1 | – | –
333.2 K | – | – | 18.2 ± 0.2 | –
333.5 K | – | – | – | 39.46 ± 1.1
343.3 K | 9e-07 ± 5e-08 | 741 ± 1.1 | 17.4 ± 0.2 | 61.57 ± 1.1
352.9 K | – | – | – | 92.28 ± 1.3
362.5 K | – | – | – | 134.96 ± 1.4
